Experiments:
[1] = molecular target: T1, human B1R (Homo sapiens, UniProt P46663); assay: FLIPR Ca2+ functional assay, B1R antagonism, human B1R in CHO K1 cells; type: cell-based; conditions: test substance 10 μM; hB1R CHO K1 cells; agonist Lys-Des-Arg9 bradykinin at EC80; % of maximum achievable inhibition
T1 construct: expressed in transfected cells; host or cells: CHO K1 cells (Chinese hamster ovary), stably transfected
T1 sequence (P46663 1-353): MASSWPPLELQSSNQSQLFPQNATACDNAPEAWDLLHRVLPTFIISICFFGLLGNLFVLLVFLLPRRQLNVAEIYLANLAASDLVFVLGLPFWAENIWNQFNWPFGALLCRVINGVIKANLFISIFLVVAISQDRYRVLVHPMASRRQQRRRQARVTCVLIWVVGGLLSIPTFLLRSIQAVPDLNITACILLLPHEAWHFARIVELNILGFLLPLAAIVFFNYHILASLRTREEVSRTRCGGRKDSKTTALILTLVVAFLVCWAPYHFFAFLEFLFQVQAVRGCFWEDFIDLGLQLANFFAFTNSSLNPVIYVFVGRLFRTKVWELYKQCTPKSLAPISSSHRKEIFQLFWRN
Outline: (§1)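 IC50 values come from varied compound concentrations applied 10-20 min before an EC80 agonist challenge, with Des-Arg9 bradykinin for rat and Lys-Des-Arg9 bradykinin for human receptor. Ca2+ influx in Fluo-4-loaded CHO K1 transfectants was measured by FLIPR peak fluorescence. Data are % inhibition vs maximum, n=2-3, N>=2.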

[2] = molecular target: T2, B1R of the rat (Rattus norvegicus, UniProt P97583); assay: FLIPR Ca2+ functional assay, B1R antagonism, rat B1R in CHO K1 cells; type: cell-based; conditions: test substance 10 μM; rB1R CHO K1 cells; agonist Des-Arg9 bradykinin at EC80; % of maximum achievable inhibition
T2 construct: expressed in transfected cells; host or cells: CHO K1 cells (Chinese hamster ovary), stably transfected
T2 sequence (P97583 1-337): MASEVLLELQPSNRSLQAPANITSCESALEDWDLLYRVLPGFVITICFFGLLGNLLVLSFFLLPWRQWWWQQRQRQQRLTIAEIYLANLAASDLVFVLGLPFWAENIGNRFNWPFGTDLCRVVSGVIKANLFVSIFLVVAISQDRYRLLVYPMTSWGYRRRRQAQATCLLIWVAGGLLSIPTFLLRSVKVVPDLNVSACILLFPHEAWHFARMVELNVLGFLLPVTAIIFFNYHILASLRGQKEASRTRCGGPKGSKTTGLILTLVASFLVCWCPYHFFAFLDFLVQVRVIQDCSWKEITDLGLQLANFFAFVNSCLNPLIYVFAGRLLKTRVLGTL
Outline: as §1

## O=C(CC1c2cccn2CCN1S(=O)(=O)c1ccc(Cl)c(Cl)c1)NC1CCc2cc(CN3CCCCC3)ccc2C1 (stereo not shown) [Example 26, 2-(2-(3,4-dichlorophenylsulfonyl)-1,2,3,4-tetrahydropyrrolo[1,2-a]pyrazin-1-yl)-N-(6-(piperidin-1-ylmethyl)-1,2,3,4-tetrahydronaphthalen-2-yl)acetamide]
[1]
  inhibition at 10 µM: 98.9%
[2]
  inhibition at 10 µM: 102%

## COc1cc(C)c(S(=O)(=O)N2CCn3cccc3C2COCC(=O)NC2CCN(c3ccncc3)CC2)c(C)c1 (stereo not shown) [Example 36, 2-[[2-[(4-Methoxy-2,6-dimethyl-phenyl)sulfonyl]-1,2,3,4-tetrahydro-pyrrolo[1,2-a]pyrazin-1-yl]-methoxy]-N-(1-pyridin-4-yl-piperidin-4-yl)-acetamide]
[1]
  inhibition at 10 µM: 97.5%
[2]
  inhibition at 10 µM: 103%

## COc1ccc2cc(S(=O)(=O)N3CCn4cccc4C3CC(=O)NC3CCc4cc(CN5CCCCC5)ccc4C3)ccc2c1 (stereo not shown) [Example 8, 2-(2-(6-Methoxynaphthalen-2-ylsulfonyl)-1,2,3,4-tetrahydropyrrolo[1,2-a]pyrazin-1-yl)-N-(6-(piperidin-1-ylmethyl)-1,2,3,4-tetrahydronaphthalen-2-yl)acetamide]
[1]
  inhibition at 10 µM: 99.9%
[2]
  inhibition at 10 µM: 104%

## Cc1ccc(S(=O)(=O)N2CCn3cccc3C2CC(=O)N[C@@H]2CCCc3cc(CNCC(F)(F)F)ccc32)cc1 (stereo partly drawn) [Example 45, 2-(2-Tosyl-1,2,3,4-tetrahydropyrrolo[1,2-a]pyrazin-1-yl)-N—((R)-6-((2,2,2-trifluoroethylamino)methyl)-1,2,3,4-tetrahydronaphthalen-1-yl)acetamide]
[1]
  inhibition at 10 µM: 50.6%
[2]
  inhibition at 10 µM: 64%

## CCC(C)NCc1ccc2c(c1)CCC(NC(=O)CC1c3cccn3CCN1S(=O)(=O)c1cccc(C(F)(F)F)c1)C2 (stereo not shown) [Example 65, N-[6-[(1-Methyl-propylamino)-methyl]-1,2,3,4-tetrahydro-naphthalen-2-yl]-2-[2-[[3-(trifluoromethyl)phenyl]sulfonyl]-1,2,3,4-tetrahydro-pyrrolo[1,2-a]pyrazin-1-yl]-acetamide]
[1]
  inhibition at 10 µM: 99.1%
[2]
  inhibition at 10 µM: 98.7%

## Cc1ccc(S(=O)(=O)N2CCn3cccc3C2CC(=O)NC2CCCc3cc(CN4CCCC4)ccc32)cc1 (stereo not shown) [Example 85, 2-[2-(p-Tolylsulfonyl)-1,2,3,4-tetrahydro-pyrrolo[1,2-a]pyrazin-1-yl]-N-[6-(pyrrolidin-1-yl-methyl)-1,2,3,4-tetrahydro-naphthalen-1-yl]-acetamide]
[1]
  inhibition at 10 µM: 99.9%
[2]
  inhibition at 10 µM: 101%

## CN(C)Cc1ccc2c(c1)CCC(NC(=O)CC1c3cccn3CCN1S(=O)(=O)c1cccc(C(F)(F)F)c1)C2 (stereo not shown) [Example 92, N-[6-(Dimethylaminomethyl)-1,2,3,4-tetrahydro-naphthalen-2-yl]-2-[2-[[3-(trifluoromethyl)phenyl]sulfonyl]-1,2,3,4-tetrahydro-pyrrolo[1,2-a]pyrazin-1-yl]-acetamide]
[1]
  inhibition at 10 µM: 99.9%
[2]
  inhibition at 10 µM: 102%

## Cc1ccc(S(=O)(=O)N2CCn3cccc3C2CC(=O)NC2CCCc3cc(CN(C)C(C)(C)C)ccc32)cc1Cl (stereo not shown) [Example 76, N-[6-[(tert-Butyl-methyl-amino)-methyl]-1,2,3,4-tetrahydro-naphthalen-1-yl]-2-[2-[(3-chloro-4-methyl-phenyl)sulfonyl]-1,2,3,4-tetrahydro-pyrrolo[1,2-a]pyrazin-1-yl]-acetamide]
[1]
  inhibition at 10 µM: 99.8%
[2]
  inhibition at 10 µM: 101%

## COc1ccc2cc(S(=O)(=O)N3CCn4cccc4C3CC(=O)NC3CCc4cc(CN5CCCC5)ccc4C3)ccc2c1 (stereo not shown) [Example 94, 2-[2-[(6-Methoxy-naphthalen-2-yl)sulfonyl]-1,2,3,4-tetrahydro-pyrrolo[1,2-a]pyrazin-1-yl]-N-[6-(pyrrolidin-1-yl-methyl)-1,2,3,4-tetrahydro-naphthalen-2-yl]-acetamide]
[1]
  inhibition at 10 µM: 99.9%
[2]
  inhibition at 10 µM: 101%

## O=C(CC1c2cccn2CCN1S(=O)(=O)c1cccc(C(F)(F)F)c1)NC1CCCc2cc(CN3CCCCC3)ccc21 (stereo not shown) [Example 89, N-[6-(Piperidin-1-yl-methyl)-1,2,3,4-tetrahydro-naphthalen-1-yl]-2-[2-[[3-(trifluoromethyl)phenyl]sulfonyl]-1,2,3,4-tetrahydro-pyrrolo[1,2-a]pyrazin-1-yl]-acetamide]
[1]
  inhibition at 10 µM: 100%
[2]
  inhibition at 10 µM: 99.1%

## Cc1cccc(Cl)c1S(=O)(=O)N1CCn2cccc2C1COCC(=O)N1CCC2(CC1)CCN(c1ccncc1)CC2 (stereo not shown) [Example 15, 2-((2-(2-Chloro-6-methylphenylsulfonyl)-1,2,3,4-tetrahydropyrrolo[1,2-a]pyrazin-1-yl)methoxy)-1-(9-(pyridin-4-yl)-3,9-diazaspiro[5.5]undecan-3-yl)ethanone]
[1]
  inhibition at 10 µM: 99.9%
[2]
  inhibition at 10 µM: 98.3%

## CCC(C)NCc1ccc2c(c1)CCC(NC(=O)CC1c3cccn3CCN1S(=O)(=O)c1ccc(C)c(Cl)c1)C2 (stereo not shown) [Example 63, 2-[2-[(3-Chloro-4-methyl-phenyl)sulfonyl]-1,2,3,4-tetrahydro-pyrrolo[1,2-a]pyrazin-1-yl]-N-[6-[(1-methyl-propylamino)-methyl]-1,2,3,4-tetrahydro-naphthalen-2-yl]-acetamide]
[1]
  inhibition at 10 µM: 99.7%
[2]
  inhibition at 10 µM: 91.1%

## Cc1ccc(S(=O)(=O)N2CCn3cccc3C2CC(=O)NC2CCc3cc(CN4CCOCC4)ccc3C2)cc1Cl (stereo not shown) [Example 66, 2-[2-[(3-Chloro-4-methyl-phenyl)sulfonyl]-1,2,3,4-tetrahydro-pyrrolo[1,2-a]pyrazin-1-yl]-N-[6-(morpholin-4-yl-methyl)-1,2,3,4-tetrahydro-naphthalen-2-yl]-acetamide]
[1]
  inhibition at 10 µM: 99.9%
[2]
  inhibition at 10 µM: 100%

## COc1cc(C)c(S(=O)(=O)N2CCn3cccc3C2COCC(=O)N(C)C2CCN(c3ccncc3)CC2)c(C)c1 (stereo not shown) [Example 39, 2-[[2-[(4-Methoxy-2,6-dimethyl-phenyl)sulfonyl]-1,2,3,4-tetrahydro-pyrrolo[1,2-a]pyrazin-1-yl]-methoxy]-N-methyl-N-(1-pyridin-4-yl-piperidin-4-yl)-acetamide]
[1]
  inhibition at 10 µM: 99.6%
[2]
  inhibition at 10 µM: 105%

## CNCc1ccc2c(c1)CCCC2NC(=O)CC1c2cccn2CCN1S(=O)(=O)c1cccc(C(F)(F)F)c1 (stereo not shown) [Example 135, N-[6-(Methylamino-methyl)-1,2,3,4-tetrahydro-naphthalen-1-yl]-2-[2-[[3-(trifluoromethyl)phenyl]sulfonyl]-1,2,3,4-tetrahydro-pyrrolo[1,2-a]pyrazin-1-yl]-acetamide]
[1]
  inhibition at 10 µM: 99.6%
[2]
  inhibition at 10 µM: 104%

## Cc1ccc(S(=O)(=O)N2CCn3cccc3C2CC(=O)NC2CCCc3cc(CNC(C)(C)C)ccc32)cc1 (stereo not shown) [Example 72, N-[6-[(tert-Butylamino)-methyl]-1,2,3,4-tetrahydro-naphthalen-1-yl]-2-[2-(p-tolylsulfonyl)-1,2,3,4-tetrahydro-pyrrolo[1,2-a]pyrazin-1-yl]-acetamide]
[1]
  inhibition at 10 µM: 99.9%
[2]
  inhibition at 10 µM: 101%

## COc1cc(C)c(S(=O)(=O)N2CCn3cccc3C2CC(=O)NC2CCNCC2(C)C)c(C)c1 (stereo not shown) [Example 17, N-(3,3-Dimethylpiperidin-4-yl)-2-(2-(4-methoxy-2,6-dimethylphenylsulfonyl)-1,2,3,4-tetrahydropyrrolo[1,2-a]pyrazin-1-yl)acetamide]
[1]
  inhibition at 10 µM: 97.4%
[2]
  inhibition at 10 µM: 99.2%

## Cc1ccc(S(=O)(=O)N2CCn3cccc3C2CC(=O)NC2CCCc3cc(CN(C)C)ccc32)cc1Cl (stereo not shown) [Example 102, 2-[2-[(3-Chloro-4-methyl-phenyl)sulfonyl]-1,2,3,4-tetrahydro-pyrrolo[1,2-a]pyrazin-1-yl]-N-[6-(dimethylaminomethyl)-1,2,3,4-tetrahydro-naphthalen-1-yl]-acetamide]
[1]
  inhibition at 10 µM: 99.9%
[2]
  inhibition at 10 µM: 101%

## O=C(CC1c2cccn2CCN1S(=O)(=O)c1cccc(C(F)(F)F)c1)NC1CCCc2cc(CN3CCCC3)ccc21 (stereo not shown) [Example 86, N-[6-(Pyrrolidin-1-yl-methyl)-1,2,3,4-tetrahydro-naphthalen-1-yl]-2-[2-[[3-(trifluoromethyl)phenyl]sulfonyl]-1,2,3,4-tetrahydro-pyrrolo[1,2-a]pyrazin-1-yl]-acetamide]
[1]
  inhibition at 10 µM: 99.8%
[2]
  inhibition at 10 µM: 97.5%

## Cc1ccc(S(=O)(=O)N2CCn3cccc3C2CC(=O)NC2CCc3cc(CN4CCCC4)ccc3C2)cc1 (stereo not shown) [Example 123, 2-[2-(p-Tolylsulfonyl)-1,2,3,4-tetrahydro-pyrrolo[1,2-a]pyrazin-1-yl]-N-[6-(pyrrolidin-1-yl-methyl)-1,2,3,4-tetrahydro-naphthalen-2-yl]-acetamide]
[1]
  inhibition at 10 µM: 100%
[2]
  inhibition at 10 µM: 101%
